The values below come from the RepoRT retention time repository (doi:10.1016/j.foodchem.2021.129757).

Structures are written as SMILES. Structures can show the parent of a compound that is named as a salt.

One series is described as follows: RP, Waters ACQUITY UPLC HSS T3, 100 × 2.1 mm, 1.8 µm, 30 °C, 0.4 mL/min, estimated dead time 0.55 min; A: water + 0.1% formic acid, pH 3; B: acetonitrile + 0.1% formic acid, pH 3; gradient (min/%B) 0/0 2/0 15/100 22/100 22.1/0 26/0. The following applies: stereoisomer not certain.
Turning to `CC(C)=CCCC(C)=CCOc1c2ccoc2cc2oc(=O)ccc12` [Bergamottin], the LC retention time is 17.4 min. Take `OCC1OC(Oc2ccc(O)cc2)C(O)C(O)C1O` (stereo unspecified) [Arbutin]: the LC retention time was 1.34 min.

As for `COc1cc(CNC(=O)CCCCC=CC(C)C)ccc1O` [Capsaicin], the LC retention time is 13.7 min.

Turning to `COc1ccc(-c2cc(=O)c3c(OC)c(OC)c(OC)cc3o2)cc1OC` [Sinensetin], the LC retention time was 12.6 min. On the same count and under the same terms, the result for `Oc1cc(O)c2c(c1)OC(c1ccc(O)c(O)c1)C(O)C2c1c(O)cc(O)c2c1OC(c1ccc(O)c(O)c1)C(O)C2` (stereo unspecified) [Procyanidin B2] reads 8.35 min; that for `CN1CCCCC1C(=O)O` (stereo unspecified) [1-Methylpiperidine-2-carboxylic acid], 1.1 min. The same measure, in the same setting: the result for `COc1ccc(-c2cc(=O)c3c(OC)c(OC)c(OC)c(OC)c3o2)cc1OC` [Nobiletin] reads 13.2 min. Still for that read-out and setting: the value for `COc1ccc(-c2coc3cc(O)ccc3c2=O)cc1` [Formononetin] was 12.4 min; that for `CC(C)CC1NC(=O)C2CCCN2C1=O` (stereo unspecified) [Cyclo(leucyl-prolyl)] was 9.2 min; that for `O=C(O)CCCCc1ccc(O)c(O)c1` [5-(3,4 dihydroxyphenyl)valeric acid] was 9.86 min.

Take `COc1ccc(-c2coc3cc(O)cc(O)c3c2=O)cc1` [Biochanin A]: the LC retention time is 13.5 min. Same read-out and setting: the result for `O=C(C=CC=Cc1ccc2c(c1)OCO2)N1CCCCC1` [Piperine] reads 13.7 min; that for `COc1ccc(-c2oc3cc(O)cc(O)c3c(=O)c2O)cc1O` [Tamarixetin], 11.9 min. Same read-out and setting: the result for `COc1ccc(-c2oc3cc(O)cc(O)c3c(=O)c2O)cc1` [Kaempferide] reads 13.4 min; that for `O=c1cc(-c2ccc(O)cc2)oc2c(C3OC(CO)C(O)C(O)C3O)c(O)cc(O)c12` (stereo unspecified) [Vitexin], 9.12 min. For the compound `Cn1c(=O)[nH]c2nc[nH]c2c1=O` [1-Methylxanthine], the LC retention time was 6.63 min. Same read-out and setting: the value for `COc1cc(C2CC(=O)c3c(O)cc(O)cc3O2)ccc1O` (stereo unspecified) [Homoeriodictyol] was 11.7 min; that for `COc1c2ccoc2cc2oc(=O)ccc12` [Bergapten] was 12.6 min. Same read-out and setting: the result for `OCC(Cc1cccc(O)c1)C(CO)Cc1cccc(O)c1` (stereo unspecified) [Enterodiol] reads 10.6 min. Still for that read-out and setting: the value for `COc1cc(O)c2c(=O)c(O)c(-c3ccc(O)c(O)c3)oc2c1` [Rhamnetin] was 12.5 min; that for `O=Cc1ccc[nH]1` [1H-pyrrole-2-carboaldehyde] was 7.8 min; that for `COc1ccc(-c2cc(=O)c3c(O)cc(O)cc3o2)cc1O` [Diosmetin] was 11.8 min.

As for `CCCC(C(=O)O)c1cccc(O)c1` (stereo unspecified) [3-Hydroxyphenylvaleric acid], the LC retention time was 10.9 min.

Regarding `CC1CCC2(NC1)OC1CC3C4CCC5CC(O)CCC5(C)C4CCC3(C)C1C2C` (stereo unspecified) [Tomatidine], the LC retention time was 11.8 min.

A short description of another series: RP, Agilent ZORBAX Eclipse XDB-C18, 100 × 2.1 mm, 1.8 µm, 50 °C, 0.4 mL/min, estimated dead time 0.55 min; A: water + 0.1% formic acid, pH 3; B: methanol + 0.1% formic acid, pH 3; gradient (min/%B) 0/2 10/100 14.5/100 14.51/2 16.5/2. The following applies: stereoisomer not certain.
As to `C=C1CCC(O)CC1=CC=C1CCCC2(C)C1CCC2C(C)C=CC(C)C(C)C` (stereo unspecified) [Ergocalciferol], the LC retention time was 11.8 min. In the case of `NCC(O)c1ccccc1` (stereo unspecified) [2-Amino-1-phenylethanol], the LC retention time is 1.42 min. Still for that read-out and setting: the result for `O=C(O)CCCCC(=O)O` [Adipic acid] reads 2.63 min; that for `CC1NCCc2cc(O)c(O)cc21` (stereo unspecified) [Salsolinol], 1.57 min. The same measure, in the same setting: the result for `O=C(O)Cc1cc(O)ccc1O` [Homogentisic acid] reads 1.82 min; that for `COc1c(O)cccc1O` [2-Methoxyresorcinol], 2.68 min; that for `O=C(O)CNC(=O)C=Cc1ccccc1` [Cinnamoylglycine], 4.75 min. Still for that read-out and setting: the value for `O=C([O-])CCc1ccccc1O` [3-(2-Hydroxyphenyl)propionic acid] was 4.8 min; that for `O=C(O)Cc1cc(O)cc(O)c1` [3,5-Dihydroxyphenylacetic acid] was 2.21 min. Take `CC1=C(/C=C/C(C)=C/C=C/C(C)=C/C=C/C=C(C)/C=C/C=C(C)/C=C/C2=C(C)CCCC2(C)C)C(C)(C)CCC1` [beta-carotene]: the LC retention time is 13.8 min. `O=C([O-])C(O)c1ccccc1` (stereo unspecified) [Mandelic acid]: the LC retention time was 3.01 min.

A further series in a line: RP, Agilent InfinityLab Poroshell 120 EC-C18, 100 × 3 mm, 2.7 µm, 25 °C, 0.4 mL/min, estimated dead time 1.1 min; A: water + 0.1% formic acid, pH 3; B: acetonitrile + 0.1% formic acid, pH 3; gradient (min/%B) 0/5 10/25 20/40 24/90 25/90 26/5 30/5. The following applies: stereoisomer not certain.
As to `Cc1c(O)cc2c(c1O)C(=O)c1ccccc1C2=O` [Rubiadin], the LC retention time is 23.8 min. Still for that read-out and setting: the value for `O=C1CCC(Cc2ccc(O)c(OS(=O)(=O)O)c2)O1` (stereo unspecified) was 6.5 min; that for `O=C(O)C1OC(Oc2ccc3c(c2)oc(=O)c2ccc(O)cc23)C(O)C(O)C1O` (stereo unspecified) [Isourolithin A glucuronide] was 8.44 min. The same measure, in the same setting: the value for `O=c1oc2cc(OS(=O)(=O)O)ccc2c2ccccc12` [Urolithin B-3-sulfate] was 12.7 min. Take `COc1ccc(C2CC(=O)c3c(O)cc(OS(=O)(=O)O)cc3O2)cc1O` (stereo unspecified) [Hesperetin 7-sulfate]: the LC retention time is 12.6 min. Same read-out and setting: the result for `O=c1oc2cc(O)ccc2c2c(O)cc(O)cc12` [Urolithin M7] reads 11.2 min; that for `O=C1CCC(Cc2cccc(O)c2)O1` (stereo unspecified), 10.6 min. Still for that read-out and setting: the result for `O=c1c(-c2ccc(O)cc2)coc2cc(OS(=O)(=O)O)ccc12` [Daidzein sulfate] reads 9.85 min; that for `O=C(O)C1OC(Oc2ccc(-c3coc4cc(O)cc(O)c4c3=O)cc2)C(O)C(O)C1O` (stereo unspecified) [Genistein 4'-O-glucuronide], 10.7 min. Same read-out and setting: the value for `COc1cc(CC(COC2OC(CO)C(O)C(O)C2O)C(COC2OC(CO)C(O)C(O)C2O)Cc2ccc(O)c(OC)c2)ccc1O` (stereo unspecified) [Secoisolariciresinol diglucoside] was 8.08 min; that for `O=c1oc2cc(O)ccc2c2c(O)c(O)c(O)cc12` [Urolithin M6] was 9.62 min. `O=C1c2ccccc2C(=O)c2c1cc(O)c(CO)c2O` [lucidin]: the LC retention time is 18.6 min. Regarding `O=C(O)C1OC(Oc2ccc3c(=O)c(-c4ccc(O)cc4)coc3c2)C(O)C(O)C1O` (stereo unspecified) [Daidzein 7-O-glucuronide], the LC retention time was 7.51 min. Still for that read-out and setting: the value for `OCC(Cc1cccc(O)c1)C(CO)Cc1cccc(O)c1` (stereo unspecified) [Enterodiol] was 13.5 min; that for `O=S(=O)(O)Oc1ccc(C=Cc2cc(O)cc(O)c2)cc1` [Resveratrol 4'-sulfate] was 10 min; that for `Oc1ccc(CCc2cc(O)cc(O)c2)cc1` [Dihydroresveratrol] was 12.8 min.

With `O=C(O)C1OC(Oc2ccc(-c3coc4cc(O)ccc4c3=O)cc2)C(O)C(O)C1O` (stereo unspecified) [Daidzein 4'-O-glucuronide], the LC retention time was 8.83 min. Still for that read-out and setting: the value for `O=C(O)c1c(O)cccc1O` [2,6-Dihydroxybenzoic acid] was 6.49 min; that for `O=c1oc2cc(OS(=O)(=O)O)ccc2c2ccc(O)cc12` [Urolithin A-3-sulfate] was 9.67 min. As for `O=c1oc2cc(O)ccc2c2cc(O)ccc12` [Isourolithin  A], the LC retention time is 12.7 min. As to `O=S(=O)([O-])Oc1ccc(C2COc3cc(O)ccc3C2)cc1` (stereo unspecified) [Equol sulfate], the LC retention time was 11.6 min.

For `COc1ccc(C2CC(=O)c3c(O)cc(O)cc3O2)cc1OS(=O)(=O)O` (stereo unspecified) [Hesperetin 3'-O-sulfate], the LC retention time is 13.3 min.

A further series in a line: RP, Waters ACQUITY UPLC BEH C18, 100 × 2.1 mm, 1.7 µm, 65 °C, 0.4 mL/min, estimated dead time 0.55 min; A: water + 0.1% formic acid, pH 3; B: 80% acetonitrile + 20% acetone + 0.1% formic acid, pH 3; gradient (min/%B) 0/0 5/100 5.5/0 6/0. The following applies: stereoisomer not certain.
On to `COc1cccc(OC)c1O` [2,6-Dimethoxyphenol], for which the LC retention time was 2.36 min.

For `CC(C)C(O)(CC(=O)O)C(=O)O` (stereo unspecified) [2-Isopropylmalic acid], the LC retention time is 1.72 min. On to `O=Cc1c[nH]c2ccccc12` [Indole-3-carbaldehyde], for which the LC retention time is 2.32 min. Still for that read-out and setting: the result for `O=C1CCCCN1` [2-Piperidinone] reads 1.37 min; that for `O=C(O)CC(O)c1ccccc1` (stereo unspecified) [3-hydroxy-3-phenylpropionic acid], 2.06 min. On the same count and under the same terms, the value for `COc1cc(C(C)=O)ccc1O` [4'-Hydroxy-3'methoxyacetophenone] was 2.18 min; that for `C=C1CCC(O)CC1=CC=C1CCCC2(C)C1CCC2C(C)C=CC(C)C(C)(C)O` (stereo unspecified) [25-Hydroxyvitamin-D2] was 5.07 min; that for `COc1ccc(-c2oc3cc(O)cc(O)c3c(=O)c2O)cc1O` [Tamarixetin] was 2.96 min. Take `COc1cc(CC2COC(=O)C2Cc2ccc(O)c(OC)c2)ccc1O` (single isomer, unassigned; (-)) [(-)-Matairesinol]: the LC retention time was 2.86 min.

On to `CC12C=Cc3occc3C1CCC13CC(CCC12)C(O)(CO)C3` (stereo unspecified) [Kahweol], for which the LC retention time was 3.73 min. On to `CC(O)(CCO)CC(=O)[O-]` (stereo unspecified) [Mevalonic acid], for which the LC retention time is 1.35 min. For `O=C(O)c1ccc2ccccc2n1` [Quinaldic acid], the LC retention time was 1.68 min.

As to `Cc1cc(C(=O)O)ccc1O` [4-Hydroxy-3-methylbenzoic acid], the LC retention time was 2.03 min. Same read-out and setting: the result for `CC1(O)Cc2c(O)cc(O)cc2OC1c1ccc(O)c(O)c1` (stereo unspecified) [3-Methylepicatechin] reads 1.99 min.
